Test results from patent US20180271863A1, “TARGETING P2 PURINERGIC RECEPTORS TO TREAT HEPATOCELLULAR CARCINOMA (HCC)” (Baylor College of Medicine, priority 2015, published 2018).
“Also recorded” adds a separate entry of the source.

Tests used:
Type in all cases: cell-based, human
Huh7 cells [1] = assay: qRT-PCR of YAP target genes in Huh7 cells; details: 24 h treatment
From the text: Total RNA was isolated from human livers or cells and was amplified by qRT-PCR as described recently (Oncotarget 2015; 6:41162-41179). Next, Applicants tested whether extracellular nucleotide treatment may have an effect on YAP target genes important in hepatocellular carcinoma. […] Moreover, P2X3 antagonist (AF-353) pretreatment attenuated ATP mediated induction of survivin (FIG. 20G).

Huh7 cells [2] = assay: BrdU incorporation (proliferation) in Huh7 cells; details: for BrdU incorporation / BrdU positive nuclei: nucleotide 100 μM
Procedure: To determine whether P2 purinergic receptor activation influences HCC cell proliferation, BrdU incorporation was assessed in HCC cells maintained in SFM for 24 hours and treated with ATP for 24 hours. ATP treatment alone was sufficient to induce proliferation in each of these cell lines (Huh7, 34%; Hep3B, 46%; SNU-387, 47% and PLC/PRF/5, 24%), identifying nucleotides as liver cancer cell mitogens (FIG. 7A).
Extracellular ATP can be hydrolyzed to ADP and adenosine by ectonucleotidases at the plasma membrane. Therefore, Applicants tested the effects of ATPγS (non-hydrolyzable analog of ATP) or ADP (break down product of ATP) (100 μM) on Huh7 cell proliferation. ATPγS treatment alone was sufficient to induce BrdU incorporation as early as 12 hours (42%); maintained at 18 h (30%) and 24 h (29%) in Huh7 cells (FIG. 8). ADP was also able to independently increase the number of BrdU positive nuclei (12 h, 30%; 18 h, 35%; 24 h, 37%) (FIG. 8). Furthermore, ATP treatment (18 h) increased cell proliferation and viability in all four cell lines, as determined by MTT assay (Huh7, 65%; Hep3B, 81%; SNU-387, 90% and PLC/PRF/5, 43%) (FIG. 7B).
(§1) Normal human primary hepatocytes isolated from healthy adults (no known history of HCC) in suspension or freshly-frozen prior to shipment (Cryoport Systems, CA) were purchased from Triangle Research Labs, NC. Fresh hepatocytes were plated on collagen-coated tissue culture plates or glass coverslips in Williams E complete media with additives (10% fetal bovine serum, 2 mM glutamine, […] insulin, 4 ng/ml glucagon, […] transferrin, 2.5 ng/ml sodium selenite, 10,000 U/ml penicillin, […] streptomycin, 50 g/ml gentamycin) for 3 h to ensure hepatocyte adherence to plates. Subsequently, hepatocytes were maintained in Williams E minimal media free from serum and growth factors for 24 h prior to treatment. Human hepatocellular carcinoma derived Huh7, and Hep3B, were cultured in Minimum Essential Medium Eagle (MEM); SNU-387 was cultured in Roswell Park Memorial Institute (RPMI) medium and PLC/PRF/5 cultured in Dulbecco's Modified Eagle's medium (DMEM). All maintenance culture media were supplemented with 10% fetal bovine serum (FBS), L-Glutamine (2 mM), penicillin (100 units/ml) and streptomycin ([…]) at 37° C. and 5% CO2. Cells were maintained in serum free media (containing 2 mM L-Glutamine, 100 units/ml penicillin and ([…])) streptomycin for 24 h prior to treatment.
(§2) Formalin-fixed and paraffin embedded liver sections from HCC patients were analyzed by immunohistochemistry with anti-P2X3 antibody (Abcam, Cambridge, Mass.). HCC cells were grown on glass coverslips; BrdU (10 μM, Roche, Indianapolis, Ind.) was added to culture media for 1 h prior to fixation (cold acetone:methanol, 1:1) and stained using anti-BrdU antibody (DAKO, Carpinteria, Calif.) and DAB Peroxidase Substrate Kit (Vector Labs, Burlingame, Calif.), according to manufacturer's instructions. Counterstaining was done with hematoxylin. BrdU positive cells were counted and expressed as a percentage of the total number of cells in ten randomly selected high-power fields (20×) per coverslips.

Huh7 cells [3] = assay: Western blotting of cyclin and CDK proteins in Huh7 cells
Procedure: as §1
Total protein extracts were obtained by homogenizing cells in total lysis buffer (50 mM Tris-HCl, pH 7.5, 0.5 M NaCl, 2 mM EGTA, 2 mM EDTA, 1.0% Triton X-100, 0.25% Deoxycholate, 1 m/ml pepstatin, 1.0 m/ml leupeptin, 1.0 m/ml aprotinin, 1.0 mM phenylmethylsulfonyl fluoride, 1.0 mM Dithiothreitol, 2.0 mM activated Na3VO4, and 2.0 mM NaF) and centrifuging at 14,000 rpm for 10 min (4° C.). Equal amounts of total proteins as determined by BCA protein Assay (Pierce, Rockford, Ill.) were analyzed by Western blotting. Blots were probed with antibody specific for a-tubulin or GAPDH to ensure equal loading of proteins in each lane.

[4] = test system: Huh7 cells overexpressing P2X3; assay: BrdU incorporation in Huh7 cells transfected with P2X3 or pCMV6 vector
Procedure: as §2, with “Thereafter, these cells were treated with ATP+/-P2X3 antagonist, AF-353. […] Huh7 cells were maintained in MEM with 10% fetal bovine serum (FBS), 5% L-Glutamine and 5% Penicillin-streptomycin overnight. P2X3 or pCMV6 vector control plasmids (1 m) were transfected with Turbofectin 8.00 (Origene Technologies, Rockville, Md.) in MEM with 5% L-Glutamine. Media was […] hours, according to manufacturer's instructions. Formalin-fixed” for “Formalin-fixed”

[5] = antagonist alone, serum-free conditions
[6] = transfected Huh7, ATP 100 μM, 24 h

Nc1ncnc2c1ncn2[C@@H]1O[C@H](COP(=O)(O)OP(=O)(O)OP(O)(O)=S)[C@@H](O)[C@H]1O [ATPγS]
AREG gene expression (Huh7 cells [1]): 3.3 fold
CTGF gene expression (Huh7 cells [1]): 2.2 fold
Sox9 gene expression (Huh7 cells [1]): 1.6 fold
cyclin E gene expression (Huh7 cells [1]): 2.0 fold
survivin gene expression (Huh7 cells [1]): 1.1 fold
BrdU incorporation / BrdU positive nuclei (Huh7 cells [2]; 12 h): 42%
BrdU incorporation / BrdU positive nuclei (Huh7 cells [2]; 18 h): 30%
BrdU incorporation / BrdU positive nuclei (Huh7 cells [2]; 24 h): 29%
cyclin A protein expression (Huh7 cells [3]; ATPγS 18 h): 1.7 fold
cyclin D3 protein expression (Huh7 cells [3]; ATPγS 18 h): 2.7 fold
cyclin E protein expression (Huh7 cells [3]; ATPγS 18 h): 1.7 fold
cyclin A protein expression (Huh7 cells [3]; ATPγS 24 h): 1.2 fold
cyclin D3 protein expression (Huh7 cells [3]; ATPγS 24 h): 2.8 fold
cyclin E protein expression (Huh7 cells [3]; ATPγS 24 h): 1.3 fold
CDK2 protein expression (Huh7 cells [3]; ATPγS 30 h): 1.6 fold
CDK4 protein expression (Huh7 cells [3]; ATPγS 30 h): 1.4 fold
cyclin A protein expression (Huh7 cells [3]; ATPγS 30 h): 1.2 fold
cyclin D3 protein expression (Huh7 cells [3]; ATPγS 30 h): 2.1 fold
cyclin E protein expression (Huh7 cells [3]; ATPγS 30 h): 2.2 fold

COc1cc(C(C)C)c(Oc2cnc(N)nc2N)cc1I [AF-353]
effect on ATP-mediated increase in BrdU incorporation (Huh7 cells [2]; AF-353 5 μM pre-treatment, ATP 100 μM 24 hr): completely abolished; also recorded: attenuates
effect on baseline BrdU-positive cells (Huh7 cells [2]; [5]): reduce
effect on ATP-mediated induction of cyclin D3 and cyclin E expression (Huh7 cells [3]; AF-353 5 μM pre-treatment, ATP 24 h): completely attenuated
effect on baseline cyclin protein expression (Huh7 cells [3]; [5]): reduce
effect on P2X3 mediated increase in proliferation (BrdU) ([4]; P2X3-overexpressing Huh7, AF-353 5 μM, 24 h): completely attenuated
effect on ATP mediated increase in BrdU incorporation ([4]; transfected Huh7, AF-353 5 μM pre-treatment, ATP 100 μM 24 h): significantly attenuated

Nc1ncnc2c1ncn2[C@@H]1O[C@H](COP(=O)(O)OP(=O)(O)OP(=O)(O)O)[C@@H](O)[C@H]1O [ATP]
AREG gene expression (Huh7 cells [1]): 5.1 fold
CTGF gene expression (Huh7 cells [1]): 3.4 fold
Sox9 gene expression (Huh7 cells [1]): 2.0 fold
cyclin E gene expression (Huh7 cells [1]): 2.1 fold
survivin gene expression (Huh7 cells [1]): 1.1 fold
proliferation (BrdU incorporation) induced by ATP (Huh7 cells [2]; SFM 24 hours, ATP 24 hours): 34%
cyclin D3 protein expression (Huh7 cells [3]; ATP 24 hours, serum-free): 3.2 fold
ATP mediated proliferation in P2X3-overexpressing cells vs cells transfected with only pCMV6 [4, 6]: significantly higher
BrdU incorporation compared to the pCMV6 control [4, 6]: further increased
